Laboratory results reported in patent publication US20120283208A1, “ANTIBACTERIAL AMINOGLYCOSIDE ANALOGS” (Achaogen, Inc., priority 2009, published 2012).
Values after ≈ are worked out from the molar mass of the structure shown.

Assays:
[1] = system: P. aeruginosa ATCC 27853; assay: MIC broth microdilution, APAE001; type: cell-based; details: Pseudomonas aeruginosa; APAE001 is ATCC27853; Mueller Hinton Broth, 35 C, 20 hours
Description: (§1) Minimum inhibitory concentrations (MIC) were determined by reference Clinical and Laboratory Standards Institute (CLSI) broth microdilution methods per M7-A7 [2006]. Quality control ranges utilizing E. coli ATCC 25922, P. aeruginosa ATCC 27853 and S. aureus ATCC 29213, and interpretive criteria for comparator agents were as published in CLSI M100-S17 [2007]. Briefly, serial two-fold dilutions of the test compounds were prepared at 2× concentration in Mueller Hinton Broth. The compound dilutions were mixed in 96-well assay plates in a 1:1 ratio with bacterial inoculum. The inoculum was prepared by suspension of a colony from an agar plate that was prepared the previous day. Bacteria were suspended in sterile saline and added to each assay plate to obtain a final concentration of 5×10^5 CFU/mL. The plates were incubated at 35 C for 20 hours in ambient air.

[2] = system: E. coli ATCC 25922; assay: MIC broth microdilution, AECO001; type: cell-based; details: Escherichia coli; AECO001 is ATCC25922; Mueller Hinton Broth, 35 C, 20 hours
Description: as §1

NC[C@@H]1O[C@H](O[C@H]2[C@@H](O)[C@H](O[C@@H]3[C@@H](O)[C@H](NC(=O)C4(O)CNC4)C[C@H](N)[C@H]3O[C@H]3O[C@H](CNCCO)[C@@H](O)C[C@H]3N)O[C@@H]2CO)[C@H](N)[C@@H](O)[C@@H]1O [1/16]
MIC [1]: ≤ 1 µg/mL | MIC [2]: 1 to 16 µg/mL (≈ 1.35 to 21.6 µM)

NC[C@@H]1O[C@H](O[C@H]2[C@@H](O)[C@H](O[C@@H]3[C@@H](O)[C@H](NC(=O)[C@]4(O)C[C@H](N)C4)C[C@H](N)[C@H]3O[C@H]3O[C@H](CNCCO)[C@@H](O)C[C@H]3N)O[C@@H]2CO)[C@H](N)[C@@H](O)[C@@H]1O [2/9]
MIC [1]: ≤ 1 µg/mL | MIC [2]: 1 to 16 µg/mL (≈ 1.32 to 21.2 µM)

NC[C@@H](O)[C@H](O)C(=O)N[C@@H]1C[C@H](N)[C@@H](O[C@H]2O[C@H](CNCCO)[C@@H](O)C[C@H]2N)[C@H](O[C@@H]2O[C@H](CO)[C@@H](O[C@H]3O[C@@H](CN)[C@@H](O)[C@H](O)[C@H]3N)[C@H]2O)[C@H]1O [3/3]
MIC [1]: ≤ 1 µg/mL | MIC [2]: 1 to 16 µg/mL (≈ 1.32 to 21.1 µM)

NC[C@@H]1O[C@H](O[C@H]2[C@@H](O)[C@H](O[C@@H]3[C@@H](O)[C@H](NC(=O)[C@@H](O)[C@@H](O)CN)C[C@H](N)[C@H]3O[C@H]3O[C@H](CNCCO)[C@@H](O)C[C@H]3N)O[C@@H]2CO)[C@H](N)[C@@H](O)[C@@H]1O [4/3]
MIC [1]: ≤ 1 µg/mL | MIC [2]: 1 to 16 µg/mL (≈ 1.32 to 21.1 µM)

NC[C@@H](F)[C@H](O)C(=O)N[C@@H]1C[C@H](N)[C@@H](O[C@H]2O[C@H](CNCCO)[C@@H](O)C[C@H]2N)[C@H](O[C@@H]2O[C@H](CO)[C@@H](O[C@H]3O[C@@H](CN)[C@@H](O)[C@H](O)[C@H]3N)[C@H]2O)[C@H]1O [5/3]
MIC [1]: ≤ 1 µg/mL | MIC [2]: 1 to 16 µg/mL (≈ 1.31 to 21 µM)

NC[C@@H]1O[C@H](O[C@H]2[C@@H](O)[C@H](O[C@@H]3[C@@H](O)[C@H](NC(=O)[C@@H](O)C(F)(F)CN)C[C@H](N)[C@H]3O[C@H]3O[C@H](CNCCO)[C@@H](O)C[C@H]3N)O[C@@H]2CO)[C@H](N)[C@@H](O)[C@@H]1O [6/3]
MIC [1]: 1 to 16 µg/mL (≈ 1.28 to 20.5 µM) | MIC [2]: 1 to 16 µg/mL (≈ 1.28 to 20.5 µM)
